# Assay results as given in patent publication US5504240A, “Borane-hydroxydialkylsulfide borates” (Aldrich Chemical Company, Inc., priority 1995, dated 1996).
# Assay: not given
# Conditions: prior art; cited from earlier work
row,SMILES,stability
1,"[BH3-][S+]1CCOCC1 [Borane-1,4-thioxane]",stable over prolonged periods
2,[BH3-][S+](C)C [Borane-methyl sulfide],much more stable than borane-tetrahydrofuran
3,[BH3-][O+]1CCCC1 [Borane-tetrahydrofuran],unstable over a period of time

# Assay: not given
# Conditions: prior art; cited from earlier work
# Remark: another data set of the same source
row,SMILES,solubility in water
1,CSC [dimethyl sulfide],not soluble in water
2,"[BH3-][S+]1CCOCC1 [Borane-1,4-thioxane]",limited solubility in water

# Assay: not given
# Conditions: in BH3; liquid; prior art; cited from earlier work
row,SMILES,borane concentration
1,"[BH3-][S+]1CCOCC1 [Borane-1,4-thioxane]",8 M

# Assay: solubility in water of hydroxysulfides (1 g per ... mL H2O)
# Assay type: physicochemical
# Conditions: mL H2O per 1 g hydroxysulfide
row,solubility in water 1 g per ... mL H2O,SMILES
1,< 100 mL,"CC(C)CCSCCO [i-AmSCH2 CH2 OH, 2-(isoamylthio)ethanol]"
2,< 100 mL,"CC(C)CCSCCOCCO [i-AmSCH2 CH2 OCH2 CH2 OH, 2-2-(isoamylthio)ethoxy!ethanol]"
3,100 mL,"CC(C)CCSCCOCCOCCO [i-AmSCH2 CH2 OCH2 CH2 OCH2 CH2 OH, 2-2-2-(isoamylthio)ethoxy!ethoxy!ethanol]"

# Same assay, conditions: water
row,solubility in water 1 g per ... mL H2O (in words),SMILES
1,miscible,"COCCSCCO [H3 COCH2 CH2 SCH2 CH2 OH, 2-(2-methoxyethylthio)ethanol]"
2,miscible,"CCSCCOCCOCCO [Et--SCH2 CH2 OCH2 CH2 OCH2 CH2 OH, 2-2-2-(ethylthio)ethoxy!ethoxy!ethanol]"
3,miscible,"CC(C)(C)SCCOCCOCCO [t-BuSCH2 CH2 OCH2 CH2 OCH2 CH2 OH, 2-2-2-(tert-butylthio)ethoxy!ethoxy!ethanol]"
4,miscible,"CCSCCOCCO [EtSCH2 CH2 OCH2 CH2 OH, 2-2-(ethylthio)ethoxy!ethanol]"

# Same assay, conditions: water; mL H2O per 1 g hydroxysulfide
row,solubility,SMILES
1,66.7 mg/mL,"CC(C)(C)SCCOCCO [t-BuSCH2 CH2 OCH2 CH2 OH, 2-2-(tert-butylthio)ethoxy!ethanol]"
2,20 mg/mL,"CC(C)(C)SCCO [t-BuSCH2 CH2 OH, 2-(tert-butylthio)ethanol]"

# Assay: active hydride analysis of borane adducts ([BH3], by hydrolysis and hydrogen evolved)
# Assay type: physicochemical
# Conditions: estimated by hydrolysis in water:glycerol:THF 1:1:1 and measuring hydrogen evolved
# Description: Alternatively, borate esters were prepared from the reaction of borane-tetrahydrofuran with hydroxysulfide in molar ratio 1:3. Quantitative borate ester formation was confirmed by measuring the hydrogen evolved. Warming of the reaction mixture (60°-65° C.) is necessary to drive the reaction to completion. Generally speaking, the novel compounds of this invention are conveniently prepared in a straight-forward procedure by passing diborane into a neat borate ester at 0° C. in a bubbler provided with a stirrer. Excess diborane not absorbed by the borate ester is absorbed in a down-stream bubbler containing tetrahydrofuran over mercury and cooled in ice water. A mercury bubbler is connected to the exit. Diborane is passed into the ester until the concentration of excess borane in THF reaches approximately 1M. The borane-borate adduct is stirred overnight at room temperature prior to disconnecting the bubblers and analyzed for active hydride following the procedure described by Brown, H. C., Organic Syntheses via Boranes, J. Wiley: New York, 1975, p. 191, using a 2M hydrochloric acid-glycerol-water(2:1:1) hydrolysis solution.
# A 100 ml one-neck, round-bottom flask equipped with a septum inlet, magnetic stirring bar and an adapter with a stopcock was charged with boron trifluoride diglyme (20 mmol). A 2M solution of sodium borohydride in triglyme (7.5 ml, 15 mmol) was added dropwise by means of a hypodermic syringe. Generation of diborane is smooth and the reaction is not exothermic. Generated diborane was passed through a bubbler containing sodium borohydride (0.1 g) in diglyme (5 ml) and a trap cooled to -78° C. was absorbed in neat 2-(tert-butylthio)ethanol (7.94 g, 60 mmol) at room temperature. After the addition was completed, the solution of borate was stirred at 50° C. for 15 min under a slow stream of nitrogen to produce the borate ester tris 2-(tert-butylthio)ethyl borate at room temperature. Escaped diborane was absorbed in the following bubbler containing tetrahydrofuran (10 ml) over mercury and cooled in ice water. A mercury bubbler was connected to the exit. Diborane was passed into the solution until the concentration of borane in the THF reached approximately 1M. The borane adduct, a colorless liquid, was analyzed for active hydride by a standard procedure using a water:glycerol:THF 1:1:1 hydrolyzing mixture. Concentration 6.4M, ^11 B NMR δ -26.03.
# ^b Estimated by hydrolysis in water: glycerol: THF 1:1:1 and measurin
row,SMILES,[BH3]
1,"[BH3-][S+](CCOCCOB(OCCOCC[S+]([BH3-])CCC(C)C)OCCOCC[S+]([BH3-])CCC(C)C)CCC(C)C (stereo not drawn) [9e, tris 2-2-(Isoamylthio)ethoxy!ethyl borate borane adduct (1:3)]",5.0 M
2,"[BH3-][S+](CCOCCOB(OCCOCC[S+]([BH3-])C(C)(C)C)OCCOCC[S+]([BH3-])C(C)(C)C)C(C)(C)C (stereo not drawn) [9d, tris 2-2-(tert-Butylthio)ethoxy!ethyl!borate borane adduct (1:3)]",5.5 M
3,[BH3-][S+](CCOB(OCC[S+]([BH3-])CCC(C)C)OCC[S+]([BH3-])CCC(C)C)CCC(C)C (stereo not drawn) [9b],5.9 M
4,"[BH3-][S+](CC)CCOCCOB(OCCOCC[S+]([BH3-])CC)OCCOCC[S+]([BH3-])CC (stereo not drawn) [9c, tris 2-2-(Ethylthio)ethoxy!ethyl!borate borane adduct (1:3)]",5.7 M
5,"[BH3-][S+](CC)CCOCCOCCOB(OCCOCCOCC[S+]([BH3-])CC)OCCOCCOCC[S+]([BH3-])CC (stereo not drawn) [9f, tris 2-2-2-(Ethylthio)ethoxy!ethoxy!ethyl!borate borane adduct (1:3)]",5.2 M
6,"[BH3-][S+](CCOCCOCCOB(OCCOCCOCC[S+]([BH3-])CCC(C)C)OCCOCCOCC[S+]([BH3-])CCC(C)C)CCC(C)C (stereo not drawn) [9h, tris 2-2-2-(Isoamylthio)ethoxy!ethoxy!ethyl!borate borane adduct (1:3)]",4.0 M
7,"[BH3-][S+](CCOCCOCCOB(OCCOCCOCC[S+]([BH3-])C(C)(C)C)OCCOCCOCC[S+]([BH3-])C(C)(C)C)C(C)(C)C (stereo not drawn) [9g, tris 2-2-2-(tert-Butylthio)ethoxy!ethoxy!ethyl!borate borane adduct (1:3)]",4.2 M
8,"[BH3-][S+](CCOC)CCOB(OCC[S+]([BH3-])CCOC)OCC[S+]([BH3-])CCOC (stereo not drawn) [9i, tris 2-(2-Methoxyethylthio)ethyl!borate borane adduct (1:3)]",6.0 M
9,"[BH3-][S+](CCOB(OCC[S+]([BH3-])C(C)(C)C)OCC[S+]([BH3-])C(C)(C)C)C(C)(C)C (stereo not drawn) [9a, Tris 2-(tert-Butylthio)ethyl!borate borane adduct (1:3)]",6.4 M
